Reference: patent EP4678638A1, “NEW E3 UBIQUITIN LIGASE LIGAND, PROTEIN DEGRADATION AGENT AND USE THEREOF” (priority 2023, dated 2024)

Columns and labels:
[1] = test system: PC-9; experiment: CCK-8 proliferation, PC-9; type: cell-based, Human; conditions: Homo sapiens, PC-9; CCK-8; 96 hours; read-out: Inhibitory activity (IC50) on tumor cell proliferation, PC-9
Description: (§1) The tumor cells used herein were cultured in a cell culture medium listed in table A1 at 37°C in an incubator with 5% CO2. Prior to experimentation, all cell lines used were correctly identified by STR profiling, and tested negative for mycoplasma contamination using a mycoplasma detection kit through routine screenings. Table A1. Tumor cells and cell culture medium used in the present disclosure
(§2) IC50 values of the compounds of the present disclosure (including the compounds in Table 1, and compounds of examples) were measured using the Meilun Cell Counting Kit-8 kit from Dalian Meilun Biotech Co., Ltd. Assay details are as follows: tumor cells were seeded in a 96-well plate at a density listed in Table A2. After 24h, 100 µL of the inoculated cells were treated with 0.5µL of the compounds of the present disclosure (including the compounds in Tables 1 and 2, and compounds of examples) at 10 different successively decreasing concentrations (starting at the highest concentration of 10µM; 5-fold serial dilutions). After the cells were treated with the compounds of the present disclosure for a period of time, the cell viability detection reagent was added to the culture medium for cell viability assessment according to the instructions provided with the CCK-8 kit. […] The growth inhibition of the compounds of the present disclosure on cells was plotted by Prism Graphpad software, and the IC50 values of the compounds of the present disclosure were calculated therefrom. […] Seeding protocol and treatment time for tumor cells

[2] = test system: H1975; experiment: CCK-8 proliferation, NCI-H1975 (H1975); type: cell-based, Human; conditions: Homo sapiens, NCI-H1975; CCK-8; 96 hours; read-out: Inhibitory activity (IC50) on tumor cell proliferation, H1975
How it was run: (§3)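 Tumor cells were cultured at 37°C with 5% CO2, seeded, and after 24h treated with compounds at 10 concentrations starting at 10µM (5-fold serial dilutions).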

[3] = test system: HCC827; experiment: CCK-8 proliferation, HCC827; type: cell-based, Human; conditions: Homo sapiens, HCC827; CCK-8; 96 hours; read-out: Inhibitory activity (IC50) on tumor cell proliferation, HCC827
Description: as §1, §2

[4] = test system: EGFR; experiment: Western blot degradation of EGFR (H1975 Cell); type: cell-based, Human; conditions: Table D2
How it was run: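 After compound exposure, cells were harvested and lysates run on SDS-PAGE, transferred to nitrocellulose and probed with antibodies. Remaining target (%) was computed from band grayscale relative to an internal control protein and normalised; degradation (%) was 100% minus that.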

[5] = test system: MGC-803; experiment: CCK-8 proliferation, MGC-803 (heads: MGC80-3, MGC803); type: cell-based, Human; conditions: Homo sapiens, MGC-803; Table B10, compounds designed based on the IRAK4 inhibitors; MGC803 cells; read-out: Inhibitory activity (IC50, nM) on tumor cell proliferation, MGC803
Description: as §1, §2

[6] = test system: MM.1S; experiment: CCK-8 proliferation, MM.1S; type: cell-based; conditions: Homo sapiens, MM1.S; Table B10, compounds designed based on the IRAK4 inhibitors; MM.1S cells; read-out: Inhibitory activity (IC50, nM) on tumor cell proliferation, MM.1S
How it was run: as §3

Compound | IC50 [1] [nM] | IC50 [2] [nM] | IC50 [3] [nM] | Degradation of substrate protein EGFR (substrate protein remaining %) [4] | IC50 [5] [nM] | IC50 [6] [nM]
O=C1CCN(c2ccc(CN3CCN(C4CCN(c5ccc(Nc6ncc7nc(Nc8ccccc8)n(C8CCCC8)c7n6)cc5)CC4)CC3)nc2)C(=O)N1 [GT-05941, 1-(6-((4-(1-(4-((9-cyclopentyl-8-(phenylamino)-9H-purin-2-yl)amino)phenyl)piperidin-4-yl)piperazin-1-yl)methyl)pyridin-3-yl)dihydropyrimidine-2,4(1H,3H)-dione] | 1 to 10 | 100 to 500 | 10 to 50 | A (A is defined as 0% ≤ substrate protein remaining % ≤ 80%) |  | 
CN(Cc1ccc(C2CCC(=O)NC2=O)c(F)c1)C1CCN(c2ccc(Nc3ncc4nc(Nc5ccccc5)n(C5CCCC5)c4n3)cc2)CC1 (stereo not drawn) [GT-03864, 3-(4-(((1-(4-((9-cyclopentyl-8-(phenylamino)-9H-purin-2-yl)amino)phenyl)piperidin-4-yl)(methyl)amino)methyl)-2-fluorophenyl)piperidine-2,6-dione] | 1 to 10 | 100 to 500 | 1 to 10 | A (A is defined as 0% ≤ substrate protein remaining % ≤ 80%) |  | 
O=C1CCC(Nc2cccc(CN3CCN(C4CCN(c5ccc(Nc6ncc7nc(Nc8ccccc8)n(C8CCCC8)c7n6)cc5)CC4)CC3)c2)C(=O)N1 (stereo not drawn) [GT-05943, 3-((3-((4-(1-(4-((9-cyclopentyl-8-(phenylamino)-9H-purin-2-yl)amino)phenyl)piperidin-4-yl)piperazin-1-yl)methyl)phenyl)amino)piperidine-2,6-dione] | 10 to 50 |  | 10 to 50 | A (A is defined as 0% ≤ substrate protein remaining % ≤ 80%) |  | 
O=C1CCC(c2ccc(CN3CCN(c4ccc(Nc5ncc6nc(Nc7ccccc7)n(C7CCCC7)c6n5)cc4)CC3)cc2F)C(=O)N1 (stereo not drawn) [GT-03741, 3-(4-((4-(4-((9-cyclopentyl-8-(phenylamino)-9H-purin-2-yl)amino)phenyl)piperazin-1-yl)methyl)-2-fluorophenyl)piperidine-2,6-dione] | 10 to 50 |  | 10 to 50 |  |  | 
O=C1CCN(c2ccc(CN3CCN(c4ccc(Nc5ncc6nc(Nc7ccccc7)n(C7CCCC7)c6n5)cc4)CC3)nc2)C(=O)N1 [GT-05839, 1-(6-((4-(4-((9-cyclopentyl-8-(phenylamino)-9H-purin-2-yl)amino)phenyl)piperazin-1-yl)methyl)pyridin-3-yl)dihydropyrimidine-2,4(1H,3H)-dione] | 1 to 10 | 100 to 500 | 10 to 50 | A (A is defined as 0% ≤ substrate protein remaining % ≤ 80%) |  | 
O=C1CCN(c2cccc(CN3CCN(c4ccc(Nc5ncc6nc(Nc7ccccc7)n(C7CCCC7)c6n5)cc4)CC3)c2)C(=O)N1 [GT-05838, 1-(3-((4-(4-((9-cyclopentyl-8-(phenylamino)-9H-purin-2-yl)amino)phenyl)piperazin-1-yl)methyl)phenyl)dihydropyrimidine-2,4(1H,3H)-dione] | 1 to 10 | 100 to 500 | 1 to 10 | A (A is defined as 0% ≤ substrate protein remaining % ≤ 80%) |  | 
O=C1CCN(c2ccc(CN3CCN(c4ccc(Nc5ncc6nc(Nc7ccccc7)n(C7CCCC7)c6n5)cc4)CC3)cc2)C(=O)N1 [GT-05837, 1-(4-((4-(4-((9-cyclopentyl-8-(phenylamino)-9H-purin-2-yl)amino)phenyl)piperazin-1-yl)methyl)phenyl)dihydropyrimidine-2,4(1H,3H)-dione] | 1 to 10 | 100 to 500 | 1 to 10 |  |  | 
O=C1CCC(Nc2cccc(CN3CCN(c4ccc(Nc5ncc6nc(Nc7ccccc7)n(C7CCCC7)c6n5)cc4)CC3)c2)C(=O)N1 (stereo not drawn) [GT-05841, 3-((3-((4-(4-((9-cyclopentyl-8-(phenylamino)-9H-purin-2-yl)amino)phenyl)piperazin-1-yl)methyl)phenyl)amino)piperidine-2,6-dione] | 10 to 50 |  | 10 to 50 | A (A is defined as 0% ≤ substrate protein remaining % ≤ 80%) |  | 
O=C1CCC(c2ccc(CN3CCN(c4ccc(Nc5ncc6nc(Nc7ccccc7)n(C7CCCC7)c6n5)cc4)CC3)cc2)C(=O)N1 (stereo not drawn) [GT-03740, 3-(4-((4-(4-((9-cyclopentyl-8-(phenylamino)-9H-purin-2-yl)amino)phenyl)piperazin-1-yl)methyl)phenyl)piperidine-2,6-dione] | 10 to 50 |  | 10 to 50 | A (A is defined as 0% ≤ substrate protein remaining % ≤ 80%) |  | 
O=C1CCN(c2cccc(CN3CCN(C4CCN(c5ccc(Nc6ncc7nc(Nc8ccccc8)n(C8CCCC8)c7n6)cc5)CC4)CC3)c2)C(=O)N1 [GT-05940, 1-(3-((4-(1-(4-((9-cyclopentyl-8-(phenylamino)-9H-purin-2-yl)amino)phenyl)piperidin-4-yl)piperazin-1-yl)methyl)phenyl)dihydropyrimidine-2,4(1H,3H)-dione] | 1 to 10 | 100 to 500 | 1 to 10 | A (A is defined as 0% ≤ substrate protein remaining % ≤ 80%) |  | 
CN(Cc1ccc(N2CCC(=O)NC2=O)nc1)C1CCN(c2ccc(Nc3ncc4nc(Nc5ccccc5)n(C5CCCC5)c4n3)cc2)CC1 [GT-05871, 1-(5-(((1-(4-((9-cyclopentyl-8-(phenylamino)-9H-purin-2-yl)amino)phenyl)piperidin-4-yl)(methyl)amino)methyl)pyridin-2-yl)dihydropyrimidine-2,4(1H,3H)-dione] | 1 to 10 | 100 to 500 | 10 to 50 |  |  | 
CN(Cc1cccc(N2CCC(=O)NC2=O)c1)C1CCN(c2ccc(Nc3ncc4nc(Nc5ccccc5)n(C5CCCC5)c4n3)cc2)CC1 [GT-05870, 1-(3-(((1-(4-((9-cyclopentyl-8-(phenylamino)-9H-purin-2-yl)amino)phenyl)piperidin-4-yl)(methyl)amino)methyl)phenyl)dihydropyrimidine-2,4(1H,3H)-dione] | 1 to 10 | 100 to 500 | 10 to 50 | A (A is defined as 0% ≤ substrate protein remaining % ≤ 80%) |  | 
CN(Cc1ccc(C2CCC(=O)NC2=O)cc1)C1CCN(c2ccc(Nc3ncc4nc(Nc5ccccc5)n(C5CCCC5)c4n3)cc2)CC1 (stereo not drawn) [GT-03863, 3-(4-(((1-(4-((9-cyclopentyl-8-(phenylamino)-9H-purin-2-yl)amino)phenyl)piperidin-4-yl)(methyl)amino)methyl)phenyl)piperidine-2,6-dione] | 1 to 10 | 100 to 500 | 1 to 10 | A (A is defined as 0% ≤ substrate protein remaining % ≤ 80%) |  | 
O=C1CCN(c2ccc(CN3CCN(c4ccc(Nc5ncc6nc(Nc7ccccc7)n(C7CCCC7)c6n5)cc4)CC3)cn2)C(=O)N1 [GT-05840, 1-(5-((4-(4-((9-cyclopentyl-8-(phenylamino)-9H-purin-2-yl)amino)phenyl)piperazin-1-yl)methyl)pyridin-2-yl)dihydropyrimidine-2,4(1H,3H)-dione] | 1 to 10 | 100 to 500 | 10 to 50 | A (A is defined as 0% ≤ substrate protein remaining % ≤ 80%) |  | 
Cc1cc(-c2nc(C(=O)Nc3cc4oc(N5CCOCC5)nc4nc3N3CC[C@@H](O)C3)co2)ccn1 [emavusertib, reference compound] |  |  |  |  | > 10000 | > 10000
